# Measurements as given in patent US12384775B2, “Pyrimid-2-yl-pyrazole compounds as IRAK inhibitors” (Rigel Pharmaceuticals, Inc., priority 2022, dated 2025).
# pEC50, pIC50: −log10 of the molar value.
# Assays:
# [1] = Plasma protein binding, equilibrium dialysis (RED), rat; assay type: in vitro ADME; settings: for recovery at 5 μM / fraction unbound at 5 μM: Rat plasma, drug 5 μM; for fraction unbound at 5 μM: read-out: % bound (converted); for Free Fraction in Whole Blood Assay, Rat: plasma free fraction
# Protocol: Brain and plasma drug binding were performed by equilibrium dialysis using the Rapid Equilibrium Dialysis (RED) device. Briefly, 300 μL of plasma or brain homogenate (1 brain/3 buffer) containing drug (5 μM) was equilibrated (4-18 h) against 500 μL of buffered saline. After incubation, the concentration of drug in plasma/brain homogenate and buffer was determined by LC-MS/MS.
# Recovery is calculated by determining the total amount of drug in 50 μL of plasma and 50 μL buffer after the incubation and comparing that value to the amount of drug in 50 μL of a plasma sample that was not incubated. For the protein binding assay, drug was added to the plasma and this plasma was added to one side of the dialysis device while buffer was added to the other. After filing the plasma chamber of the equilibrium device, a 50 μL aliquot of plasma was mixed with 50 μL of buffer and then quenched with stop reagent. Drug recovery=(Drug buffer+Drug plasma)/(drug in initial plasma)
# [2] = tested on: IL23p19 in THP-1 Cells; assay: LPS induced IL23p19 in THP-1 cells (IFNγ primed), ELISA; assay type: cell-based; settings: Homo sapiens; for pIC50: THP-1, LPS, read-out: Cell Assays IC50, IL-23 (LPS, THP-1)
# Protocol: On day 1, 50K/well THP-1 cells were seeded and primed with IFNγ (50 ng/mL) in 384-well plates for about 18 hours in RPMI media with 10% FBS. On day 2, the compound was serially diluted in DMSO from 5 mM in 3-fold dilutions, and then diluted 1:125 in RPMI media with 10% FBS. 50 μL/well 2× compound was added to 50 μL/well THP-1 cells (with IFNγ primed) in duplicate in 384 well tissue culture plates. The cells were pre-incubated with compound for 1 hour at 37° C., 5% CO2 before addition of 10 μL/well 11×LPS to give a final concentration of 1 μg/mL LPS. Day 3, after stimulation for 18 hours at 37° C., 5% CO2, the assay plate was centrifuged and 70 μL/well supernatant was harvested. IL-23p19 protein in 70 μL/well of supernatant was measured by sandwich ELISA, and 25 μl/well Cell Titer Glo reagent was added to the remaining cells to measure compound toxicity.
# Maxisorp immuno ELISA plates were pre-coated with 25 μL/well of anti-IL-23p19 capture antibody (2.5 ug/mL) in PBS overnight at room temperature. After washing with 1×PBST, the plates were blocked using 100 μL/well of 1% BSA in PBS for 2 hours at room temperature. The plates were washed three times with 1×PBST and 70 μL/well supernatant were added. The plates were incubated at room temperature for 2 hours with shaking and washed three times with 1×PBST. 25 μL/well of biotin labeled anti-IL-12 (p40/p70) detection antibody (100 ng/mL) in PBS with 1% BSA was added and the plates were incubated at room temperature for 2 hours with shaking. After washing three times with 1× PBST, 25 μL/well of streptavidin-HRP (1:200) in PBS with 1% BSA was added and the plates were incubated at room temperature for 20 minutes with shaking. The plates were washed three times with 1× PBST and 25 μL/well of Super Signal ELISA Pico Chemiluminescent Substrate were added. The plates were read with a luminometer, and the chemiluminescence values were entered into Athena (Rigel) for curve fitting, EC50 calculation, and database storage.
# THP-1 cells (100K in 100 μL/well) were primed with 25 ng/mL IFN-γ for 18 hours at 37° C., 5% CO2. Compound was serially diluted in DMSO from 2.5 mM in 4-fold dilutions, and then diluted 1:125 in RPMI 1640 complete media with 10% FBS. 100 μL/well 2× compound was mixed with the 100 μL/well IFN-7 primed THP-1 in 96 well flat-bottom white tissue culture plates. The cells were pre-incubated with compound for 1 hour at 37° C., 5% CO2 and before addition of 10 μL/well 21×LPS to give a final concentration of […] for LPS. The cells were stimulated with LPS for 18 hours at 37° C., 5% CO2. After centrifugation, 100 μL/well supernatant was extracted by using a multichannel pipette. IL-23p19 or TNF-α protein in the supernatant were measured by sandwich ELISA. The remaining IFN-7 primed THP-1 cell pellets were used to perform cell viability assays to determine compound cell toxicity. The plates were read with a luminometer, and the chemiluminescence values were entered into Athena (Rigel) for curve fitting, EC50 calculation, and database storage.
# Maxisorp immuno ELISA plates were pre-coated with 100 μL/well of anti-IL-23p19 capture antibody (2.4 μg/mL) in PBS overnight at room temperature. After washing with 1×PBST, the plates were blocked using 300 μL/well of 1% BSA in PBS for 2 hours at room temperature. The plates were washed three times with 1×PBST and 100 μL/well supernatant was added. The plates were incubated at room temperature for 2 hours with shaking. The plates were washed three times with 1×PBST and 100 μL/well of biotin anti-human IL-12 (p40/70) detection antibody (10 ng/mL) in PBS with 0.1% BSA were added. The plates were incubated at room temperature for 2 hours with shaking. The plates were washed three times with 1×PBST and 100 μL/well streptavidin-HRP (1:200) in PBS with 0.1% BSA was added. The plates were incubated at room temperature for 20 minutes with shaking. […]
Compound,recovery at 5 μM [1] [%],fraction unbound at 5 μM [1],"Free Fraction in Whole Blood Assay, Rat [1] [%]",pIC50 [2],"pEC50 ([2]; THP-1 cells IFNγ primed, LPS 1 μg/mL, 18 h, read-out: IL23-p19 ELISA, THP1-IFNy, LPS, 10 pt EC50)"
"CCO[C@H]1CC[C@H](n2cc(NC(=O)c3csc(-c4cn[nH]c4)n3)c(-c3nc(F)ccc3F)n2)CC1 [Comparison-1, reference compound]",68.3,0.007,0.7,7.20,–
"CCO[C@H]1CC[C@H](n2cc(NC(=O)c3csc(-c4cn[nH]c4)n3)c(-c3ncccn3)n2)CC1 [Compound I-1, N-(1-((1r,4r)-4-ethoxycyclohexyl)-3-(pyrimidin-2-yl)-1H-pyrazol-4-yl)-2-(1H-pyrazol-4-yl)thiazole-4-carboxamide]",73.9,0.037,3.7,8.10,8.10
